Reference: US6054459A, “Substituted 1,2,3,4-tetrahydro-5-nitro-pyrimidines” (priority 1994, dated 2000)
Like-named read-outs stand apart in the source and are kept apart here.

Key:
Plutella maculipennis = experiment: Plutella test; type: in vivo, Plutella maculipennis (diamond-back moth); conditions: 72 h, read-out: Degree of destruction in % after 3d
Protocol: (§1) Solvent: 7 parts by weight of dimethylformamide
(§2) Emulsifier: 1 part by weight of alkylaryl polyglycol ether
(§3) To produce a suitable preparation of active compound, 1 part by weight of active compound is mixed with the stated amount of solvent and the stated amount of emulsifier, and the concentrate is diluted with water to the desired concentration.
Cabbage leaves (Brassica oleracea) are treated by being dipped into the preparation of active compound of the desired concentration and are infested with caterpillars of the diamond-back moth (Plutella maculipennis) while the leaves are still moist.
After the desired period of time, the destruction in % is determined. 100% means that all the caterpillars have been killed; 0% means that none of the caterpillars have been killed.

Nephotettix cincticeps = experiment: Nephotettix test; type: in vivo, Nephotettix cincticeps (green rice leafhopper); conditions: 144 h, after 6d, read-out: Degree of destruction in % after 6d; for mortality at 1e-05 %: active compound concentration 0.00001 %; for mortality at 0.0001 %: active compound concentration 0.0001 %; for mortality at 0.001 %: active compound concentration 0.001 %
Protocol: as §1, §2, §3
Rice seedlings (Oryza sativa) are treated by being dipped into the preparation of active compound of the desired concentration and are infested with larvae of the green rice leafhopper (Nephotettix cincticeps) while the seedlings are still moist.
After the desired period of time, the destruction in % is determined. 100% means that all the leafhoppers have been killed; 0% means that none of the leafhoppers have been killed.

Myzus persicae = experiment: Myzus test; type: in vivo, Myzus persicae (green peach aphid); conditions: 144 h, read-out: Degree of destruction in % after 6d
Protocol: as §1, §2, §3
Cabbage leaves (Brassica oleracea) which are severely infested with the green peach aphid (Myzus persicae) are treated by being dipped into the preparation of active compound of the desired concentration.
After the desired period of time, the destruction in % is determined. 100% means that all the aphids have been killed; 0% means that none of the aphids have been killed.

[1] = active compound concentration 0.01 %, after 3d
[2] = active compound concentration 0.1 %, after 3d
[3] = active compound concentration 0.001 %, after 6d
[4] = active compound concentration 0.01 %, after 6d

## CCCCNC(=O)OCCCCCN1CC([N+](=O)[O-])=C2N(Cc3cnc(Cl)s3)CCN2C1 [Example 78]
Lg P (physical data)
  logP: 1.73

## CCOC(=O)NCCCN1CC([N+](=O)[O-])=C2N(Cc3ccc(Cl)nc3)CCN2C1 [drawing 126]
Plutella maculipennis
  mortality at 0.01 %: 100%
  mortality at 0.1 %: 100%

## O=C(Nc1ccc(SC(F)(F)F)cc1)OCCCCCCN1CC([N+](=O)[O-])=C2N(Cc3ccc(Cl)nc3)CCN2C1 [Example 56]
Lg P (physical data)
  logP: 2.71

## O=C(Nc1ccc(Cl)cc1)OCCCCCCN1CC([N+](=O)[O-])=C2N(Cc3ccc(Cl)nc3)CCN2C1 [Example 53]
Lg P (physical data)
  logP: 2.27

## COCCNC(=O)OCCCCCN1CC([N+](=O)[O-])=C2N(Cc3ccc(Cl)nc3)CCN2C1 [Example 36]
Lg P (physical data)
  logP: 1.24

## CC(C)(C)CNC(=O)OCCCCCN1CC([N+](=O)[O-])=C2N(Cc3ccc(Cl)nc3)CCN2C1 [Example 43]
Lg P (physical data)
  logP: 2.01

## CC(=O)OCCCN1CC([N+](=O)[O-])=C2N(Cc3ccc(Cl)nc3)CCN2C1 [drawing 136]
Nephotettix cincticeps
  mortality at 1e-05 %: 100%
  mortality at 0.0001 %: 100%
  mortality at 0.001 %: 100%

## CCOC(=O)NCCN1CC([N+](=O)[O-])=C2N(Cc3ccc(Cl)nc3)CCN2C1 [drawing 139]
Myzus persicae
  mortality at 0.001 %: 95%
  mortality at 0.01 %: 100%

## O=C(Nc1ccc(Cl)cc1)OCCCCCN1CC([N+](=O)[O-])=C2N(Cc3ccc(Cl)nc3)CCN2C1 [Example 41]
Lg P (physical data)
  logP: 2.09

## O=C(NCCN1CC([N+](=O)[O-])=C2N(Cc3ccc(Cl)nc3)CCN2C1)OCc1ccccc1 [drawing 127]
Plutella maculipennis; [1]
  mortality at 0.01 %: 100%
Plutella maculipennis; [2]
  mortality at 0.1 %: 100%

## O=C(NCCCCCCCl)OCCCN1CC([N+](=O)[O-])=C2N(Cc3ccc(Cl)nc3)CCN2C1 [drawing 143]
Myzus persicae; [3]
  mortality at 0.001 %: 100%
Myzus persicae; [4]
  mortality at 0.01 %: 100%

## CC(COC(C)(C)C)NC(=O)OCCN1CC([N+](=O)[O-])=C2N(Cc3ccc(Cl)nc3)CCN2C1 (stereo not shown) [Example 33]
Lg P (physical data)
  logP: 2.26

## O=[N+]([O-])C1=C2N(Cc3cnc(Cl)s3)CCN2CN(CCCCCO)C1 [II-16]
Lg P (physical data)
  logP: 0.71

## O=C(Nc1ccc(Cl)c(Cl)c1)OCCCCN1CC([N+](=O)[O-])=C2N(Cc3ccc(Cl)nc3)CCN2C1 [Example 65]
Lg P (physical data)
  logP: 1.53

## CCOCCOCCNC(=O)OCCN1CC([N+](=O)[O-])=C2N(Cc3ccc(Cl)nc3)CCN2C1 [Example 32]
Lg P (physical data)
  logP: 1.26

## CCOCCOCCNC(=O)OCCCCCN1CC([N+](=O)[O-])=C2N(Cc3ccc(Cl)nc3)CCN2C1 [Example 35]
Lg P (physical data)
  logP: 1.44

## O=C(Nc1ccccc1)OCCCCCCN1CC([N+](=O)[O-])=C2N(Cc3ccc(Cl)nc3)CCN2C1 [Example 50]
Lg P (physical data)
  logP: 2.01

## CC(=O)NCCN1CC([N+](=O)[O-])=C2N(Cc3ccc(Cl)nc3)CCN2C1 [drawing 125]
Plutella maculipennis
  mortality at 0.01 %: 100%
  mortality at 0.1 %: 100%

## COC(C)(C)CNC(=O)OCCCCCCN1CC([N+](=O)[O-])=C2N(Cc3ccc(Cl)nc3)CCN2C1 [Example 57]
Lg P (physical data)
  logP: 1.6

## CC(C)(C)C(=O)OCCNC(=O)OCCCCCN1CC([N+](=O)[O-])=C2N(Cc3ccc(Cl)nc3)CCN2C1 [Example 40]
Lg P (physical data)
  logP: 1.81

## O=C(NCCCCCCCl)OCCCN1CC([N+](=O)[O-])=C2N(Cc3ccc(Cl)nc3)CCN2C1 [drawing 132]
Plutella maculipennis; [1]
  mortality at 0.01 %: 100%
Plutella maculipennis; [2]
  mortality at 0.1 %: 100%

## CC(C)(C)OC(=O)NCCN1CC([N+](=O)[O-])=C2N(Cc3ccc(Cl)nc3)CCN2C1 [drawing 123]
Plutella maculipennis
  mortality at 0.01 %: 100%
  mortality at 0.1 %: 100%

## CC(C)(C)CNC(=O)OCCCCN1CC([N+](=O)[O-])=C2N(Cc3ccc(Cl)nc3)CCN2C1 [Example 66]
Lg P (physical data)
  logP: 1.75

## O=C(Nc1ccccc1)OCCCCCN1CC([N+](=O)[O-])=C2N(Cc3ccc(Cl)nc3)CCN2C1 [Example 38]
Lg P (physical data)
  logP: 1.79

## CC(C)(C)CNC(=O)OCCCN1CC([N+](=O)[O-])=C2N(Cc3ccc(Cl)nc3)CCN2C1
Plutella maculipennis; [1]
  mortality at 0.01 %: 100%
Plutella maculipennis; [2]
  mortality at 0.1 %: 100%

## COCCOCCNC(=O)OCCCCCN1CC([N+](=O)[O-])=C2N(Cc3ccc(Cl)nc3)CCN2C1 [Example 34]
Lg P (physical data)
  logP: 1.28

## CC(C)(C)OC(=O)NCCN1CC([N+](=O)[O-])=C2N(Cc3ccc(Cl)nc3)CCN2C1 [drawing 138]
Myzus persicae
  mortality at 0.001 %: 100%
  mortality at 0.01 %: 100%

## CCOCCOCCNC(=O)OCCCCCCN1CC([N+](=O)[O-])=C2N(Cc3ccc(Cl)nc3)CCN2C1 [Example 47]
Lg P (physical data)
  logP: 1.63

## O=C(Nc1ccc(SC(F)(F)F)cc1)OCCCCCN1CC([N+](=O)[O-])=C2N(Cc3ccc(Cl)nc3)CCN2C1 [Example 44]
Lg P (physical data)
  logP: 2.74

## CC(=O)OCCNC(=O)OCCCCCCN1CC([N+](=O)[O-])=C2N(Cc3ccc(Cl)nc3)CCN2C1 [Example 51]
Lg P (physical data)
  logP: 1.47

## O=C(Nc1ccccc1)OCCCCN1CC([N+](=O)[O-])=C2N(Cc3ccc(Cl)nc3)CCN2C1 [Example 61]
Lg P (physical data)
  logP: 1.72

## COC(C)(C)CNC(=O)OCCCCCN1CC([N+](=O)[O-])=C2N(Cc3ccc(Cl)nc3)CCN2C1 [Example 45]
Lg P (physical data)
  logP: 1.56

## CC(=O)OCCNC(=O)OCCCCN1CC([N+](=O)[O-])=C2N(Cc3ccc(Cl)nc3)CCN2C1 [Example 62]
Lg P (physical data)
  logP: 1.22

## CNC(=O)OCCCN1CC([N+](=O)[O-])=C2N(Cc3ccc(Cl)nc3)CCN2C1 [drawing 135]
Nephotettix cincticeps
  mortality at 1e-05 %: 100%
  mortality at 0.0001 %: 100%
  mortality at 0.001 %: 100%

## CCOC(=O)NCCCN1CC([N+](=O)[O-])=C2N(Cc3ccc(Cl)nc3)CCN2C1 [drawing 141]
Myzus persicae
  mortality at 0.001 %: 99%
  mortality at 0.01 %: 100%

## CNC(=O)OCCCN1CC([N+](=O)[O-])=C2N(Cc3ccc(Cl)nc3)CCN2C1 [drawing 128]
Plutella maculipennis
  mortality at 0.01 %: 100%
  mortality at 0.1 %: 100%

## CC(=O)OCCNC(=O)OCCCCCN1CC([N+](=O)[O-])=C2N(Cc3ccc(Cl)nc3)CCN2C1 [Example 39]
Lg P (physical data)
  logP: 0.82

## O=C(Nc1ccc(S(=O)(=O)C(F)(F)F)cc1)OCCCCN1CC([N+](=O)[O-])=C2N(Cc3ccc(Cl)nc3)CCN2C1 [Example 60]
Lg P (physical data)
  logP: 2.22

## O=[N+]([O-])C1=C2N(Cc3ccc(Cl)nc3)CCCN2CN(CCOCC(F)(F)F)C1 [drawing 137, reference compound]
Myzus persicae
  mortality at 0.001 %: 0%
  mortality at 0.01 %: 80%

## CC(=O)OCCN1CC([N+](=O)[O-])=C2N(Cc3ccc(Cl)nc3)CCN2C1
Plutella maculipennis
  mortality at 0.01 %: 100%
  mortality at 0.1 %: 100%

## CCCCNC(=O)OC(C)CN1CC([N+](=O)[O-])=C2N(Cc3ccc(Cl)nc3)CCN2C1 (stereo not shown) [Example 75]
Lg P (physical data)
  logP: 1.63

## O=C(Nc1ccc(S(=O)(=O)C(F)(F)F)cc1)OCCCCCN1CC([N+](=O)[O-])=C2N(Cc3ccc(Cl)nc3)CCN2C1 [Example 37]
Lg P (physical data)
  logP: 2.29

## COCCOCCNC(=O)OCCCCN1CC([N+](=O)[O-])=C2N(Cc3ccc(Cl)nc3)CCN2C1 [Example 58]
Lg P (physical data)
  logP: 1.2

## COCCNC(=O)OCCCCCCN1CC([N+](=O)[O-])=C2N(Cc3ccc(Cl)nc3)CCN2C1 [Example 48]
Lg P (physical data)
  logP: 1.44

## O=C(Nc1ccc(Cl)c(Cl)c1)OCCCCCCN1CC([N+](=O)[O-])=C2N(Cc3ccc(Cl)nc3)CCN2C1 [Example 54]
Lg P (physical data)
  logP: 2.59

## CCOCCOCCNC(=O)OCCCCN1CC([N+](=O)[O-])=C2N(Cc3ccc(Cl)nc3)CCN2C1 [Example 59]
Lg P (physical data)
  logP: 1.36

## CC(C)(C)C(=O)OCCNC(=O)OCCCCN1CC([N+](=O)[O-])=C2N(Cc3ccc(Cl)nc3)CCN2C1 [Example 63]
Lg P (physical data)
  logP: 1.73

## CCOC(=O)NCCN1CC([N+](=O)[O-])=C2N(Cc3ccc(Cl)nc3)CCN2C1 [drawing 124]
Plutella maculipennis
  mortality at 0.01 %: 100%
  mortality at 0.1 %: 100%

## O=C(Nc1ccc(S(=O)(=O)C(F)(F)F)cc1)OCCCCCCN1CC([N+](=O)[O-])=C2N(Cc3ccc(Cl)nc3)CCN2C1 [Example 49]
Lg P (physical data)
  logP: 2.51

## COCCOCCNC(=O)OCCCCCCN1CC([N+](=O)[O-])=C2N(Cc3ccc(Cl)nc3)CCN2C1 [Example 46]
Lg P (physical data)
  logP: 1.47

## CC(C)(C)C(=O)OCCNC(=O)OCCCCCCN1CC([N+](=O)[O-])=C2N(Cc3ccc(Cl)nc3)CCN2C1 [Example 52]
Lg P (physical data)
  logP: 1.98

## CC(=O)OCCCN1CC([N+](=O)[O-])=C2N(Cc3ccc(Cl)nc3)CCN2C1 [drawing 129]
Plutella maculipennis
  mortality at 0.01 %: 100%
  mortality at 0.1 %: 100%

## CC(=O)NCCN1CC([N+](=O)[O-])=C2N(Cc3ccc(Cl)nc3)CCN2C1 [drawing 140]
Myzus persicae
  mortality at 0.001 %: 100%
  mortality at 0.01 %: 100%

## O=[N+]([O-])C1=C2N(Cc3cnc(Cl)s3)CCN2CN(CCCCCCO)C1 [II-15]
Lg P (physical data)
  logP: 0.94

## CC(C)(C)NC(=O)OCCCCCCN1CC([N+](=O)[O-])=C2N(Cc3cnc(Cl)s3)CCN2C1 [Example 79]
Lg P (physical data)
  logP: 1.9

## CCCCNC(=O)OCCCN1CC([N+](=O)[O-])=C2N(Cc3ccc(Cl)nc3)CCN2C1
Myzus persicae; [3]
  mortality at 0.001 %: 98%
Myzus persicae; [4]
  mortality at 0.01 %: 100%

## COCCNC(=O)OCCCN1CC([N+](=O)[O-])=C2N(Cc3ccc(Cl)nc3)CCN2C1 [Example 31]
Lg P (physical data)
  logP: 1.11

## CC(C)(C)CNC(=O)OCCCCCCN1CC([N+](=O)[O-])=C2N(Cc3ccc(Cl)nc3)CCN2C1 [Example 55]
Lg P (physical data)
  logP: 2.05
